# Target: sigma receptors
# Assay: Inhibition of 3H-DTG binding to sigma receptors in rat brain in vitro
# Settings: 2 nM 3H-DTG, rat brain without cerebellum, 25° C., 20 min
row,Compound,IC50
1,"c1ccc2c(c1)CCC2CCCCN1CCC2(CC1)OCc1ccccc12 (stereo not drawn) [Compound 28, 1'-[4-(Indan-1-yl)-1-butyl]-spiro(isobenzofuran-1(3H),4'-piperidine]]",0.15 nM
2,"COc1ccccc1C1CCN(CCCCc2c[nH]c3ccccc23)CC1 [Compound 2gg, 3-[4-(4-(2-Methoxyphenyl)-1-piperidinyl)-1-butyl]indol]",3.3 nM
3,"O=S1(=O)CC(CCCCN2CCC3(CC2)OCc2ccccc23)c2ccccc21 (stereo not drawn) [Compound 33, 1'-[4-(2,3-Dihydro-benzo[b]thiophen-3-yl)-1-butyl]spiro[isobenzofuran-1(3H),4'-piperidine]-S,S-dioxide]",0.95 nM
4,"Fc1ccc(N2CC(CCCCN3CCC4(CC3)OCc3ccccc34)c3ccccc32)cc1 (stereo not drawn) [Compound 30, 1'-(4-(2,3-Dihydro-1-(4-fluorophenyl)-3-indolyl)-1-butyl)spiro[isobenzofuran-1(3H),4'-piperidine]]",0.07 nM
5,"1'-[3-(2,3-Dihydro-5-fluoro-benzofuran-3-yl)-1-butyl]-spiro[isobenzofuran-1(3H),4'-piperidine] [Compound 11b]",0.63 nM

# Tested on: psychosis
# Assay: not given
# Settings: Snyder, Largent 1989; cited from earlier work
row,Compound,clinical effect in psychosis
1,"C[C@@H]1CN(CCCn2c3ccccc3c3ccccc32)C[C@H](C)N1 [rimcazole, reference compound]",clinically shows effects in the treatment of psychosis
